{"source": "patent US20260315486A1", "about": "“ALECTINIB FOR THE TREATMENT OF ALK FUSION-POSITIVE SOLID OR CNS TUMOURS” (Hoffmann-La Roche Inc., priority 2023, published 2026)", "key": {"[1]": {"tested_on": "ALK fusion-positive solid or CNS tumours", "assay": "Paediatric clinical trial, Part 1 safety run-in: investigator-reported tumour response (RANO / RECIST v1.1 / INRC)", "type": "in vivo, human (paediatric patients)", "excerpt": "The study consists of three parts, all enrolling paediatric participants with solid or CNS tumours with known ALK fusion for whom prior treatment has proven to be ineffective or for whom there is no satisfactory treatment available: • Part 1, dose confirmation and safety run-in: to identify the RP2D for paediatric participants, achieving the exposure observed in the adult population • This portion will consist of a safety run-in with a minimum of 6 participants (up to approximately 18 participants) to assess the safety, tolerability, and pharmacokinetics of alectinib in the paediatric population. The initial paediatric dose will be assessed and refined by modelling and simulation prospectively. • Part 2, initial expansion: to evaluate the safety and preliminary efficacy of alectinib in newly enrolled paediatric participants treated at the paediatric RP2D. A minimum of 10 participants will be enrolled in this part of the study. If 4 or more participants achieve an objective response to alectinib (as described in Part 2, below), additional expansion will be performed. • Part 3, additional expansion: This portion of the study will enroll approximately 14 additional paediatric participants. An integrated efficacy analysis accounting for every participant treated at paediatric RP2D across all cohorts will be used for the confirmation of the efficacy of alectinib.\n(§1) Alectinib will be administered orally or via feeding tube to participants BID on Days 1-28 of each 28-day cycle. All participants will be closely monitored for adverse events (regardless of relationship to study drug) throughout the study and for at least 28 days after the final dose of study treatment or until initiation of a new anti-cancer therapy, whichever occurs first.\nResponse will be assessed by the investigator on the basis of physical examinations, computed tomography (CT) scans, and other modalities where relevant (e.g., magnetic resonance imaging [MRI] scans, brain scans, bone marrow examinations, fluorodeoxyglucose-positron emission tomography (FDG-PET), metaiodobenzoguanidine [MIBG] scan), according to RANO, INRC, and RECIST v1.1 (see below). Tumour assessment imaging should include all areas of known disease.\nAn objective response should be confirmed by repeat assessments ≥4 weeks after initial documentation. The same radiographic procedure used to assess disease sites at screening should be used throughout the study (e.g., the same contrast protocol for CT scans). To the extent that is feasible, assessments should be performed by the same evaluator to ensure internal consistency across visits.\nSelected sections from the Response Evaluation Criteria in Solid Tumors (RECIST), Version 1.1 (Eisenhauer et al., 2009, Eur J Cancer, 45:228-47) are presented below, with slight modifications.\nAntitumor activity will be assessed based on clinical and radiographic evidence as described by the INRC (Park et al. 2017, Clin Oncol; 35:2580-7).\nAntitumor activity will be assessed based on clinical and radiographic evidence as described by the RANO criteria.\nThe primary efficacy endpoint is ORR in participants treated at the paediatric RP2D, as assessed by BICR, defined as the proportion of participants with an objective response. The objective response for individual participants will be assessed per RECIST v1.1 for participants with extracranial tumours, and per RANO for participants with primary CNS tumours, and INRC for neuroblastoma. An objective response is defined as a CR or PR per disease-specific response criteria, confirmed ≥4 weeks apart in two separate tumour assessments. Participants not meeting these criteria (including participants without a postbaseline tumour assessment) will be considered non-responders.\nPatients with ALK fusion-positive solid or CNS tumours for whom prior treatment has proven to be ineffective or for whom there is no satisfactory treatment available, less than 18 years of age, were eligible. […]"}, "[2]": {"assay": "Paediatric clinical trial, Part 1 safety run-in: safety and tolerability (dose-limiting toxicities, adverse events)", "type": "in vivo, human (paediatric patients)", "excerpt": "as §1\nOwing to the limitations of predicting exposure in children who are <2 years old, before enrolment of participants <2 years old, the investigator must discuss a participant's case with the Medical Monitor until at least 3 participants who are ≥2-6 years old have completed one cycle of treatment. The first participant enrolled must complete at least 8 days of treatment without a DLT before subsequent participants can enroll. If a dose adjustment is required because of toxicity, the same approach will be taken for the first participant at the new dose level. Participants will be closely monitored for adverse events during a DLT assessment window of one cycle (28 days). Participants who discontinue from the study prior to completing the DLT assessment window or who complete <80% (i.e., […]) of the prescribed therapy for that cycle for reasons other than a DLT will be considered non-evaluable. DLT non-evaluable participants will be replaced, unless the Medical Monitor determines that replacement is not necessary for a dose adjustment decision. The Medical Monitor will review all participants who take prohibited therapies, foods, or supplements or who receive supportive care during the DLT assessment window that would confound the evaluation of DLTs (not including supportive care described below as part of the DLT definition) to determine DLT evaluability and whether such participants will be replaced.\nDuring the safety run-in phase, any one of the following events will be considered a DLT if it occurs during the DLT assessment window and is assessed by the investigator to be related or possibly related to alectinib (rules for attributing causality are defined below in ‘Adverse events’). Adverse events identified as DLTs, as defined below, must be reported to the Sponsor within 24 hours.\nThe following will be considered as a DLT: • Any treatment-related death • Grade 4 neutropenia (ANC<500 cells/mm^3 which is equivalent to ANC<0.5×10^9/L) lasting at least 7 days • Febrile neutropenia: ANC<1000 cells/mm^3 (which is equivalent to ANC<1×10^9/L) with a single temperature of >38.3° C. (101° F.) or a sustained temperature of ≥38° C. (100.4° F.) for more than 1 hour • Grade 4 anaemia • Grade 4 thrombocytopenia (i.e., platelet count <25.0×10^9/L) or Grade 3 thrombocytopenia associated with clinically significant bleeding or any thrombocytopenia requiring platelet transfusion. • Of note, the post-surgical platelet threshold for platelets transfusion could be higher. […]"}, "[3]": {"tested_on": "FGFR2", "conditions": "stated without data; cited from earlier work"}, "[4]": {"conditions": "stated as known; may result in bradycardia; cited from earlier work"}, "[5]": {"conditions": "Peters et al., 2017; cited from earlier work"}, "[6]": {"conditions": "7 patients evaluable for efficacy (ALCL patient excluded), investigator, data cut off Jun. 12, 2023"}, "[7]": {"conditions": "7 patients evaluable for efficacy, investigator"}, "[8]": {"conditions": "8 patients, Part 1 safety run-in"}}, "data": [{"smiles": "CCc1cc2c(cc1N1CCC(N3CCOCC3)CC1)C(C)(C)c1[nH]c3cc(C#N)ccc3c1C2=O", "note": "[Alectinib, 9-ethyl-6,6-dimethyl-8-(4-morpholin-4-yl-piperidin-1-yl)-11-oxo-6,11-dihydro-5H-benzo[b]carbazole-3-carbonitrile]", "values": [{"measurement": "Best Overall Response: responders (CR + PR), number of patients", "setting": "[1]; [6]", "value": 4, "unit": "patients"}, {"measurement": "Best Overall Response: responders (CR + PR), percent of patients", "setting": "[1]; [6]", "value": 57.1, "unit": "%"}, {"measurement": "Best Overall Response: CR, number of patients", "setting": "[1]; [7]", "value": 1, "unit": "CR"}, {"measurement": "Best Overall Response: PR, number of patients", "setting": "[1]; [7]", "value": 3, "unit": "PR"}, {"measurement": "Best Overall Response: Stable Disease, number of patients", "setting": "[1]; [7]", "value": 2, "unit": "patients"}, {"measurement": "Best Overall Response: Stable Disease, percent of patients", "setting": "[1]; [7]", "value": 28.6, "unit": "%"}, {"measurement": "Best Overall Response (Investigator): Complete Response (CR), number of patients", "setting": "[1]; N = 8, all enrolled patients", "value": 1}, {"measurement": "Best Overall Response (Investigator): Partial Response (PR), number of patients", "setting": "[1]; N = 8, all enrolled patients", "value": 4}, {"measurement": "Best Overall Response (Investigator): Progressive Disease (PD), number of patients", "setting": "[1]; N = 8, all enrolled patients", "value": 0}, {"measurement": "Best Overall Response (Investigator): Stable Disease (SD), number of patients", "setting": "[1]; N = 8, all enrolled patients", "value": 2}, {"measurement": "Best Overall Response (Investigator): Total Responders, number of patients", "setting": "[1]; N = 8, all enrolled patients", "value": 5}, {"measurement": "Best Overall Response (Investigator, %): Complete Response (CR)", "setting": "[1]; N = 8, all enrolled patients", "value": 12.5, "unit": "%"}, {"measurement": "Best Overall Response (Investigator, %): Partial Response (PR)", "setting": "[1]; N = 8, all enrolled patients", "value": 50.0, "unit": "%"}, {"measurement": "Best Overall Response (Investigator, %): Progressive Disease (PD)", "setting": "[1]; N = 8, all enrolled patients", "value": 0.0, "unit": "%"}, {"measurement": "Best Overall Response (Investigator, %): Total Responders", "setting": "[1]; N = 8, all enrolled patients", "value": 62.5, "unit": "%"}, {"measurement": "Response, in words", "setting": "[1]; conclusion, paediatric patients with ALK-fusion positive solid or CNS tumours", "value": "majority of patients experiencing a response"}, {"measurement": "AE-related deaths", "setting": "[2]; [8]", "value": "no AE-related deaths"}, {"measurement": "Dose Limiting Toxicities", "setting": "[2]; [8]", "value": "No Dose Limiting Toxicities were reported"}, {"measurement": "New safety signals", "setting": "[2]; [8]", "value": "no new safety signals detected"}, {"measurement": "Patients with Grade ≥3 related AE", "setting": "[2]; [8]", "value": 2, "unit": "patients"}, {"measurement": "Patients with a related Adverse Event (AE)", "setting": "[2]; [8]", "value": "Seven"}, {"measurement": "Tolerability", "setting": "[2]; paediatric patients with ALK-fusion positive solid or CNS tumours", "value": "generally well tolerated"}, {"measurement": "Inhibitory activity on FGFR2", "setting": "[3]", "value": "no inhibitory activity"}, {"measurement": "Negative chronotropic effect", "setting": "[4]", "value": "known negative chronotropic effect of alectinib that may result in bradycardia"}, {"measurement": "CNS penetration", "setting": "[5]", "value": "CNS penetrant"}]}]}
